Values joined by “and” are separate entries in the source; they are usually repeats but may differ in a detail not shown here. Equal entries are not always repeated. Inconclusive results and toxic doses are left out. Cut-off read from the data, not from the text of the source: active = T/C of 150% or more; inactive = T/C below 125%.
System: L1210 leukemia ip in BDF1 mice, survival T/C
Assay: NCI In Vivo Anticancer Drug Screen. Data for tumor model L1210 Leukemia (intraperitoneal) in B6D2F1 (BDF1) mice
Conditions: endpoint: mean survival time, higher = longer survival
In short: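 Read-out is survival time, reported as the treated-group measurement over the vehicle-control measurement.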

[1] = dose: 100.0 mg/kg/injection, schedule: Q01DX009 (ip), vehicle: Klucel (hydroxypropylcellulose) (HPC)
[2] = dose: 200.0 mg/kg/injection, schedule: Q01DX009 (ip), vehicle: Klucel (hydroxypropylcellulose) (HPC)
[3] = dose: 100.0 mg/kg/injection, schedule: Q01DX001 (ip), vehicle: saline
[4] = dose: 200.0 mg/kg/injection, schedule: Q01DX001 (ip), vehicle: saline
[5] = dose: 400.0 mg/kg/injection, schedule: Q01DX001 (ip), vehicle: saline
[6] = dose: 400.0 mg/kg/injection, schedule: Q01DX009 (ip), vehicle: Klucel (hydroxypropylcellulose) (HPC)
[7] = dose: 100.0 mg/kg/injection, schedule: Q04DX003 (ip), vehicle: Klucel (hydroxypropylcellulose) (HPC)
[8] = dose: 200.0 mg/kg/injection, schedule: Q04DX003 (ip), vehicle: Klucel (hydroxypropylcellulose) (HPC)

Measured: T/C

Clc1cccc(N=C/C=C/c2ccccc2)c1
inactive: dose: 100.0 mg/kg/injection, schedule: Q01DX001 (ip), vehicle: carboxymethylcellulose (CMC) 105 % of control | dose: 100.0 mg/kg/injection, schedule: Q01DX009 (ip), vehicle: carboxymethylcellulose (CMC) 96 % of control and 100 % of control | dose: 100.0 mg/kg/injection, schedule: Q04DX002 (ip), vehicle: carboxymethylcellulose (CMC) 94 % of control and 100 % of control | dose: 100.0 mg/kg/injection, schedule: Q04DX003 (ip), vehicle: carboxymethylcellulose (CMC) 92 % of control | dose: 200.0 mg/kg/injection, schedule: Q01DX001 (ip), vehicle: carboxymethylcellulose (CMC) 96 % of control | dose: 200.0 mg/kg/injection, schedule: Q01DX009 (ip), vehicle: carboxymethylcellulose (CMC) 107 % of control and 92 % of control | dose: 200.0 mg/kg/injection, schedule: Q04DX002 (ip), vehicle: carboxymethylcellulose (CMC) 95 % of control and 97 % of control | dose: 200.0 mg/kg/injection, schedule: Q04DX003 (ip), vehicle: carboxymethylcellulose (CMC) 96 % of control | dose: 400.0 mg/kg/injection, schedule: Q01DX001 (ip), vehicle: carboxymethylcellulose (CMC) 102 % of control | dose: 400.0 mg/kg/injection, schedule: Q01DX009 (ip), vehicle: carboxymethylcellulose (CMC) 103 % of control | dose: 400.0 mg/kg/injection, schedule: Q04DX002 (ip), vehicle: carboxymethylcellulose (CMC) 94 % of control and 98 % of control | dose: 400.0 mg/kg/injection, schedule: Q04DX003 (ip), vehicle: carboxymethylcellulose (CMC) 107 % of control

CC(=O)C1=CN(c2ccccc2)COC1C (stereo unspecified)
inactive: dose: 50.0 mg/kg/injection, schedule: Q01DX009 (ip), vehicle: Klucel (hydroxypropylcellulose) (HPC) 107 % of control | [1] 91 % of control | [2] 100 % of control

CCOC(=O)NCCNC(=O)OCC
inactive: dose: 75.0 mg/kg/injection, schedule: Q01DX001 (ip), vehicle: Klucel (hydroxypropylcellulose) (HPC) 105 % of control | dose: 150.0 mg/kg/injection, schedule: Q01DX001 (ip), vehicle: Klucel (hydroxypropylcellulose) (HPC) 95 % of control | dose: 300.0 mg/kg/injection, schedule: Q01DX001 (ip), vehicle: Klucel (hydroxypropylcellulose) (HPC) 100 % of control

CCCCCCCCCCCCCC[n+]1ccccc1
inactive: dose: 0.25 mg/kg/injection, schedule: Q04DX003 (ip), vehicle: saline 96 % of control | dose: 0.5 mg/kg/injection, schedule: Q01DX001 (ip), vehicle: saline 97 % of control | dose: 0.5 mg/kg/injection, schedule: Q04DX003 (ip), vehicle: saline 94 % of control | dose: 1.0 mg/kg/injection, schedule: Q01DX001 (ip), vehicle: saline 105 % of control | dose: 1.0 mg/kg/injection, schedule: Q04DX003 (ip), vehicle: saline 96 % of control | dose: 2.0 mg/kg/injection, schedule: Q01DX001 (ip), vehicle: saline 112 % of control | dose: 2.0 mg/kg/injection, schedule: Q04DX003 (ip), vehicle: saline 96 % of control | dose: 4.0 mg/kg/injection, schedule: Q04DX003 (ip), vehicle: saline 109 % of control | dose: 62.5 micrograms/kg/injection, schedule: Q01DX009 (ip), vehicle: saline 119 % of control | dose: 125.0 micrograms/kg/injection, schedule: Q01DX009 (ip), vehicle: saline 100 % of control | dose: 250.0 micrograms/kg/injection, schedule: Q01DX009 (ip), vehicle: saline 113 % of control | dose: 500.0 micrograms/kg/injection, schedule: Q01DX009 (ip), vehicle: saline 105 % of control | dose: 1000.0 micrograms/kg/injection, schedule: Q01DX009 (ip), vehicle: saline 110 % of control

c1cc[c]([Pb]([S]c2nc3ccccc3[nH]2)([c]2ccccc2)[c]2ccccc2)cc1
inactive: dose: 3.12 mg/kg/injection, schedule: Q04DX002 (ip), vehicle: gum acacia 104 % of control | dose: 6.25 mg/kg/injection, schedule: Q04DX002 (ip), vehicle: gum acacia 101 % of control | dose: 12.5 mg/kg/injection, schedule: Q04DX002 (ip), vehicle: gum acacia 97 % of control and 101 % of control

C[n+]1ccc(Cl)c2ccc(Cl)cc21
inactive: dose: 10.0 mg/kg/injection, schedule: Q01DX001 (ip), vehicle: saline 100 % of control | dose: 20.0 mg/kg/injection, schedule: Q01DX001 (ip), vehicle: saline 102 % of control | dose: 40.0 mg/kg/injection, schedule: Q01DX001 (ip), vehicle: saline 102 % of control

O=C1NCCN1c1ccccn1
inactive: dose: 100.0 mg/kg/injection, schedule: Q04DX003 (ip), vehicle: saline 100 % of control | dose: 200.0 mg/kg/injection, schedule: Q04DX003 (ip), vehicle: saline 97 % of control

ClB(Cl)c1ccc(Br)cc1
inactive: [3] 97 % of control | [4] 86 % of control | [5] 95 % of control

CCCCCCCCCCCCCC(=O)OCCC(C)C
inactive: dose: 222.0 mg/kg/injection, schedule: Q01DX Z (ip), vehicle: saline 105 % of control | dose: 333.0 mg/kg/injection, schedule: Q01DX Z (ip), vehicle: saline 95 % of control | dose: 500.0 mg/kg/injection, schedule: Q01DX Z (ip), vehicle: saline 102 % of control

O=C(NC1CCCCC1)OCCOc1ccccc1
inactive: [1] 95 % of control | [2] 103 % of control | [6] 97 % of control

C/C=C/[N+]([O-])=NC(C)CCCCCC (stereo unspecified)
inactive: dose: 100.0 mg/kg/injection, schedule: Q04DX002 (ip), vehicle: saline 105 % of control | dose: 200.0 mg/kg/injection, schedule: Q04DX002 (ip), vehicle: saline 97 % of control | dose: 400.0 mg/kg/injection, schedule: Q04DX002 (ip), vehicle: saline 94 % of control

S=C=Nc1cccc2c(N=C=S)cccc12
inactive: dose: 50.0 mg/kg/injection, schedule: Q01DX001 (ip), vehicle: saline 98 % of control | [3] 98 % of control | [4] 110 % of control | [5] 119 % of control

CCC1(CC)C=CC(Br)CC1(CC)CC (stereo unspecified)
inactive: dose: 100.0 mg/kg/injection, schedule: Q04DX003 (ip), vehicle: saline with Tween-80 103 % of control | dose: 200.0 mg/kg/injection, schedule: Q04DX003 (ip), vehicle: saline with Tween-80 101 % of control | dose: 400.0 mg/kg/injection, schedule: Q04DX003 (ip), vehicle: saline with Tween-80 101 % of control

Cc1nc(Br)c(C(O)c2ccccc2)n1C (stereo unspecified)
inactive: [1] 100 % of control and 103 % of control | dose: 100.0 mg/kg/injection, schedule: Q04DX002 (ip), vehicle: Klucel (hydroxypropylcellulose) (HPC) 101 % of control and 103 % of control | [7] 93 % of control | [2] 95 % of control and 109 % of control | dose: 200.0 mg/kg/injection, schedule: Q04DX002 (ip), vehicle: Klucel (hydroxypropylcellulose) (HPC) 101 % of control and 103 % of control | [8] 97 % of control | [6] 95 % of control and 117 % of control | dose: 400.0 mg/kg/injection, schedule: Q04DX002 (ip), vehicle: Klucel (hydroxypropylcellulose) (HPC) 98 % of control and 100 % of control | dose: 400.0 mg/kg/injection, schedule: Q04DX003 (ip), vehicle: Klucel (hydroxypropylcellulose) (HPC) 95 % of control

Oc1ccc2ccccc2c1C=Nc1cccc(Cl)c1
inactive: dose: 50.0 mg/kg/injection, schedule: Q04DX003 (ip), vehicle: Klucel (hydroxypropylcellulose) (HPC) 103 % of control | dose: 100.0 mg/kg/injection, schedule: Q01DX001 (ip), vehicle: Klucel (hydroxypropylcellulose) (HPC) 113 % of control | [7] 101 % of control | dose: 200.0 mg/kg/injection, schedule: Q01DX001 (ip), vehicle: Klucel (hydroxypropylcellulose) (HPC) 107 % of control | [8] 98 % of control | dose: 400.0 mg/kg/injection, schedule: Q01DX001 (ip), vehicle: Klucel (hydroxypropylcellulose) (HPC) 101 % of control

COc1ccc(NC2=CC(=O)N(c3ccc(OC)cc3)C2=O)cc1
inactive: dose: 100.0 mg/kg/injection, schedule: Q04DX003 (ip), vehicle: other 86 % of control | dose: 200.0 mg/kg/injection, schedule: Q04DX003 (ip), vehicle: other 98 % of control | dose: 400.0 mg/kg/injection, schedule: Q04DX003 (ip), vehicle: other 98 % of control
